The text below walks through data of patent publication US20260183297A1, “SELECTION OF PATIENTS FOR THE TREATMENT OF FADS1-MEDIATED DISEASES OR DISORDERS USING FADS-1 INHIBITORS” (AMGEN INC., priority 2022, published 2026).

The target of this assay is T1, FADS1 (Mus musculus, UniProt Q920L1).
T1 construct: Liver from ^13C5-DGLA dosed DIO mice was collected for pharmacodynamic (PD) analysis; from tissue; host or cells: living DIO C57Bl/6 mice; 13C5-DGLA to 13C5-AA conversion read in liver (A4) or blood plasma (A5)
T1 sequence (Q920L1 1-447): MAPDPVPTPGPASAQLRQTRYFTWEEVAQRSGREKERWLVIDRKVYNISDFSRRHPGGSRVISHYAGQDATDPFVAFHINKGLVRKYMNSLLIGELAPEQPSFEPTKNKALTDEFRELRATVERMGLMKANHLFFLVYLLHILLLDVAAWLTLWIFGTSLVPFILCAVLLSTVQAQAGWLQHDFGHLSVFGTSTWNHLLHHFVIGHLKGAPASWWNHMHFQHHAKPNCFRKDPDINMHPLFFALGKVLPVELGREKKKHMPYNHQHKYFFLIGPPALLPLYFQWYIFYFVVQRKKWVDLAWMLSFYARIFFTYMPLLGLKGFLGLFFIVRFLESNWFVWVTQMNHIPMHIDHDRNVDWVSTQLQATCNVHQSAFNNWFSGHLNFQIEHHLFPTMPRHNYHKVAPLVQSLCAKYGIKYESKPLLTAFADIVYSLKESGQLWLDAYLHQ
The experiment in a line: In vivo FADS1 activity measurement using the liver (13C5-DGLA to 13C5-AA conversion). Conditions: for IC50: liver of DIO mice, unbound plasma concentration, read-out: Free (unbound) in vivo IC50. As for the experimental part:
Mice were then dosed by intraperitoneal injection with a solution comprising of a mixture of 0.1 ml solution of ^13C5-DGLA (2 mM in 18.42 mM Na2CO3 buffer). Necropsy were performed at 30 minutes post ^13C5-DGLA dosing. Liver from ^13C5-DGLA dosed DIO mice was collected for pharmacodynamic (PD) analysis and EDTA plasma was collected for compound exposure determination. For PD analysis, 150 mg of frozen liver tissue were premixed with ALA-D14 as an internal standard. Liver samples were homogenized and extracted twice with chloroform/methanol (2:1) solution. The organic phases for the two extractions were pooled and evaporated to dryness under nitrogen gas. The liver extract was resuspended in 200 μl 2N NaOH and saponified at 65° C. for 1 hour. After cooling to room temperature, 100 μl of formic acid was added and the mixture was subjected to two consecutive extractions with a chloroform:methanol (2:1) solution. The pooled organic phases were evaporated to dryness under nitrogen gas and resuspended in a solution containing acetonitrile and methanol at a ratio of 1:1. The extracts were then analyzed by LC/MS/MS for the following analytes: ^13C5-DGLA, ^13C5-AA, with ALA-d14 as the internal standard. The sample (20 μl) was injected onto a Poroshell 120 EC-C18 3.0×50 mm, 1.9 μm id column (Agilent, Santa Clara, CA). The analyte peak areas were quantified using the Analyst software (SCIEX, Framingham, […]). The residual in vivo FADS1 activity was calculated by taking the percent of substrate to product conversion normalized to the vehicle group to determine the percent of control (POC) and the percent inhibition relative to control (vehicle).
To determine the degree of FADS1 inhibition, the in vivo FADS1 activity as the percent of conversion calculated using the following equation: […]
The data were then normalized to the vehicle group to determine the percent of inhibition relative to control (vehicle) by the following equation: […]
To calculate the in vivo potency, dose response graphs were generated by plotting the plasma concentration of the test compound determined from the PK analysis on the abscissa, against the percent of control (POC, relative to vehicle) of the FADS1 activity for each mouse. The data points were then fitted by using the log(inhibitor) vs response nonlinear regression algorithm using GraphPad Prism (version 8.4.3, San Diego CA) to calculate the in vivo IC50 (total).
Free (unbound) IC50 and IC90 values were calculated by first calculating the unbound compound concentration in the plasma by multiplying the plasma concentration of test compound with the fraction unbound (fu) value in mouse plasma determined in the plasma protein binding study. A dose response curve was used to determine the unbound IC50 and IC90 by plotting the unbound plasma concentration of the compound on the abscissa, against the percent of control (POC, relative to vehicle) of FADS1 activity for each mouse. The data points were then fitted with a log (inhibitor) versus response nonlinear regression algorithm using GraphPad Prism (version 8.4.3, San Diego, CA) to calculate the in vivo IC50 (Free).

Where [1] appears, read: DIO mice, single oral dose 10 mg/kg, 24 hours after dosing.
The mark [2] stands for this setting: DIO mice, single oral dose 30 mg/kg, 24 hours after dosing.
Setting [3] is: mouse, DIO mice, single oral dose 10 mg/kg, 24 hours after dosing, read-out: Liver Avg % Inhibition.
Setting [4] is: mouse, DIO mice, single oral dose 30 mg/kg, 24 hours after dosing, read-out: Liver Avg % Inhibition.

Read-outs that look alike come from different tables or passages of the source.

Turning to `N#Cc1ccn2c(=O)c(-c3cnn(CC(F)(F)C(F)(F)F)c3)c(C(F)(F)F)nc2c1` [Compound C], the IC50 came out at 4 nM. For the same compound, where the note is “DIO mice, single oral dose 3 mg/kg, 24 hours after dosing”, the “Liver Avg % Conversion” value amounted to 14.2%. Under setting [1], the “Liver Avg % Conversion” value came to 4.3%. Further, the “Liver Avg % Conversion” value under setting [2] came out at 1.5%. Also, the inhibition at 3 mg/kg (mouse, DIO mice, single oral dose 3 mg/kg, 24 hours after dosing) was determined as 83%. For the same compound, the inhibition at 10 mg/kg under setting [3] came to 94.8%. Also, the inhibition at 30 mg/kg under setting [4] is 98.2%.
Take `COc1ccn2c(=O)c(-c3cnn(CC(F)(F)C(F)(F)F)c3)c(C(F)(F)F)nc2c1` [Compound A, 8-methoxy-3-(1-(2,2,3,3,3-pentafluoropropyl)-1H-pyrazol-4-yl)-2-(trifluoromethyl)-4H-pyrido[1,2-a]pyrimidin-4-one]: the IC50 stood at 2 nM. Further, the inhibition at 10 mg/kg (mouse, DIO mice, 10 mg/kg daily oral, after 54 days of treatment, read-out: FADS1 activity inhibited (residual liver FADS1 activity)) was determined as 90%. Besides, the inhibition at 30 mg/kg (mouse, DIO mice, 30 mg/kg daily oral, after 54 days of treatment, read-out: FADS1 activity inhibited (residual liver FADS1 activity)) stood at 93.6%.
As to `COc1ccn2c(=O)c(-c3cnn(CC(F)(F)C(F)(F)F)c3)c(C(F)(F)F)nc2n1` [Compound B], the IC50 turned out to be 4 nM. Further, the “Liver Avg % Conversion” value under setting [1] is listed as 2.2%. Further, the “Liver Avg % Conversion” value under setting [2] worked out at 1.5%. Where the note is “DIO mice, single oral dose 50 mg/kg, 24 hours after dosing”, the “Liver Avg % Conversion” value worked out at 1.4%. Further, the inhibition at 10 mg/kg under setting [3] amounted to 97.4%. Under setting [4], the inhibition at 30 mg/kg was 98.2%. Further, the inhibition at 50 mg/kg (mouse, DIO mice, single oral dose 50 mg/kg, 24 hours after dosing) was found to be 98.3%.

The IC50 is the concentration needed to halve the response being measured.
